ChEMBL document CHEMBL1201862, “PubChem BioAssay data set” (2004)
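How tested: cells in 96-well plates exposed to compound for 48 hours at five concentrations. At the GI50, growth is halved.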 Active and inactive are the calls of the source. No stated cut-off is given here; in the data, active = GI50 up to about 1.1 µM and inactive = higher.

Legend:
Experiment in all cases: DTP human tumour cell line panel, 48 h
KM12 = tested on: KM12
SR = tested on: SR
SN12C = tested on: SN12C
NCI-H226 = tested on: NCI-H226
HCT-15 = tested on: HCT-15
MOLT-4 = tested on: MOLT-4
LOX IMVI = tested on: LOX IMVI
ACHN = tested on: ACHN
MDA-N = tested on: MDA-N
RXF 393 = tested on: RXF 393
NCI-H23 = tested on: NCI-H23
EKVX = tested on: EKVX
CCRF-CEM = tested on: CCRF-CEM
SF-268 = tested on: SF-268
SF-295 = tested on: SF-295
M14 = tested on: M14
HCC 2998 = tested on: HCC 2998
PC-3 = tested on: PC-3
NCI/ADR-RES = tested on: NCI/ADR-RES
MDA-MB-231 = tested on: MDA-MB-231
SNB-19 = tested on: SNB-19
HL-60 = tested on: HL-60
A498 = tested on: A498
HOP-62 = tested on: HOP-62
Hs-578T = tested on: Hs-578T
UACC-257 = tested on: UACC-257
DU-145 = tested on: DU-145
SF-539 = tested on: SF-539
UACC-62 = tested on: UACC-62
OVCAR-5 = tested on: OVCAR-5
OVCAR-8 = tested on: OVCAR-8
T47D = tested on: T47D
MDA-MB-435 = tested on: MDA-MB-435
HCT-116 = tested on: HCT-116
NCI-H522 = tested on: NCI-H522
SW-620 = tested on: SW-620
TK-10 = tested on: TK-10
SK-MEL-5 = tested on: SK-MEL-5
HOP-92 = tested on: HOP-92
MCF7 = tested on: MCF7
HT-29 = tested on: HT-29
SK-MEL-28 = tested on: SK-MEL-28
OVCAR-3 = tested on: OVCAR-3
786-0 = tested on: 786-0
NCI-H460 = tested on: NCI-H460
IGROV-1 = tested on: IGROV-1
K562 = tested on: K562
U-251 = tested on: U-251
A549 = tested on: A549
OVCAR-4 = tested on: OVCAR-4
Malme-3M = tested on: Malme-3M
RPMI-8226 = tested on: RPMI-8226

CNC1(C(=O)O)CC1
GI50 (KM12): > 100 µM (inactive) | GI50 (SR): > 100 µM (inactive) | GI50 (SN12C): > 100 µM (inactive) | GI50 (NCI-H226): > 100 µM (inactive) | GI50 (HCT-15): > 100 µM | GI50 (MOLT-4): > 100 µM (inactive) | GI50 (LOX IMVI): > 100 µM (inactive) | GI50 (ACHN): > 100 µM (inactive) | GI50 (MDA-N): > 100 µM (inactive) | GI50 (RXF 393): > 100 µM (inactive) | GI50 (NCI-H23): > 100 µM (inactive) | GI50 (EKVX): > 100 µM (inactive) | GI50 (CCRF-CEM): > 100 µM (inactive) | GI50 (SF-268): > 100 µM (inactive) | GI50 (SF-295): > 100 µM (inactive) | GI50 (M14): > 100 µM (inactive) | GI50 (HCC 2998): > 100 µM (inactive) | GI50 (PC-3): > 100 µM (inactive) | GI50 (NCI/ADR-RES): > 100 µM (inactive) | GI50 (MDA-MB-231): > 100 µM (inactive) | GI50 (SNB-19): > 100 µM (inactive) | GI50 (HL-60): > 100 µM (inactive) | GI50 (A498): > 100 µM (inactive) | GI50 (HOP-62): > 100 µM (inactive) | GI50 (Hs-578T): > 100 µM (inactive) | GI50 (UACC-257): > 100 µM (inactive) | GI50 (DU-145): > 100 µM (inactive) | GI50 (SF-539): > 100 µM (inactive) | GI50 (UACC-62): 69.2 µM (inactive) | GI50 (OVCAR-5): > 100 µM (inactive) | GI50 (OVCAR-8): > 100 µM (inactive) | GI50 (T47D): 87.5 µM (inactive) | GI50 (MDA-MB-435): > 100 µM (inactive) | GI50 (HCT-116): > 100 µM (inactive) | GI50 (NCI-H522): > 100 µM (inactive) | GI50 (SW-620): > 100 µM (inactive) | GI50 (TK-10): > 100 µM (inactive) | GI50 (SK-MEL-5): > 100 µM (inactive) | GI50 (HOP-92): > 100 µM (inactive) | GI50 (MCF7): > 100 µM (inactive) | GI50 (HT-29): > 100 µM (inactive) | GI50 (SK-MEL-28): > 100 µM (inactive) | GI50 (OVCAR-3): > 100 µM (inactive) | GI50 (786-0): > 100 µM (inactive) | GI50 (NCI-H460): > 100 µM (inactive) | GI50 (IGROV-1): > 100 µM (inactive) | GI50 (K562): > 100 µM (inactive) | GI50 (U-251): > 100 µM (inactive) | GI50 (A549): > 100 µM (inactive) | GI50 (OVCAR-4): > 100 µM (inactive) | GI50 (Malme-3M): > 100 µM (inactive) | GI50 (RPMI-8226): > 100 µM (inactive)
